Data on 3 molecules can be found in ChEMBL document CHEMBL2331194, “Ligerin, an antiproliferative chlorinated sesquiterpenoid from a marine-derived Penicillium strain” (J Nat Prod, 2013).

The structures appear in SMILES notation.

In general, IC50 refers to the concentration that gives 50% inhibition. Broadly, the inhibition is the change of the read-out against control, counted positive when it falls.

Data set [1] can be described thus: cells. As to conditions: Rattus norvegicus, 72 h.
Description: Antiproliferative activity against rat AT6-1 cells assessed as inhibition of cell viability after 72 hrs by XTT assay
In data set [2] the test system is L929. In words: cells. As to conditions: Mus musculus, L929, 72 h.
Description: Antiproliferative activity against mouse L929 cells assessed as inhibition of cell viability after 72 hrs by XTT assay
Data set [3] is described as follows: Antiproliferative activity against mouse POS1 cells assessed as inhibition of cell viability after 72 hrs by XTT assay. The format is functional, cell-based. The settings on record: POS1, 72 h.
In data set [4] the test system is KB. As to the kind of experiment: cells. The settings on record: Homo sapiens, 72 h.
Description: Antiproliferative activity against human KB cells assessed as inhibition of cell viability after 72 hrs by MTT assay
Data set [5] in a line: Antiproliferative activity against rat OSRGA cells assessed as inhibition of cell viability after 72 hrs by XTT assay. The format is functional, cell-based.
The nature of data set [6]: Antiproliferative activity against mouse L929 cells assessed as inhibition of cell viability at 60 to 2400 nM after 72 hrs by XTT assay. The format is cell-based. On the set-up: dose or concentration left out as unconfirmed. In general terms: Tetrazolium assays rely on reduction of a dye to a coloured formazan, in cell work by metabolically active cells.
Data set [7] can be described thus: Antiproliferative activity against rat OSRGA cells assessed as inhibition of cell viability at 60 to 2400 nM after 72 hrs by XTT assay. The format is functional.
Data set [8] can be described thus: Antiproliferative activity against rat AT6-1 cells assessed as inhibition of cell viability at 60 to 2400 nM after 72 hrs by XTT assay. The format is functional.

On to `C=C(C)C1(O)OC(=O)C=C1OC` (centres undefined) [PENICILLIC ACID], for which the IC50 in data set [1] is 29400 nM; in data set [2], 12900 nM; in data set [3], 7800 nM; in data set [4] it was over 100000 nM.
As to `COc1cccc2c1C(=O)c1c(O)c3c(c(O)c1C2=O)C[C@@](O)(C(=O)CO)C[C@@H]3O[C@H]1C[C@H](N)[C@H](O)[C@H](C)O1` [DOXORUBICIN], the 50% inhibitory concentration (IC50) in data set [5] came to 93 nM; in data set [3] it was 43 nM.
For the molecule `CO[C@@H]1[C@H](OC(=O)CCC(=O)O)CC[C@](O)(CCl)[C@H]1[C@@]1(C)O[C@@H]1CC=C(C)C` [LIGERIN], the concentration for half-maximal inhibition (IC50) is over 2400 nM in data set [1]; over 2400 nM in data set [2]; over 2400 nM in data set [5]; 117 nM in data set [3]; over 478000 nM in data set [4]. Further, the inhibition at 72 h in data set [6] worked out at 35%. Also, the results for the “inhibition (INH)” value in data set [7] and in data set [8] were 22% and 20%, respectively.
